Measurements taken from patent US9550811B2, “Peptide scaffold design” (BIONOR IMMUNO AS, priority 2010, dated 2017).

Legend:
Assay in all cases: REVEAL binding assay
Conditions in all cases: score as percentage of the signal generated by the positive control peptide
[1] = system: HLA-A1
[2] = system: HLA-A24
Description: (§5) The REVEAL™ binding assay determined the ability of each candidate peptide to bind to one or more MHC class I alleles and stabilizing the MHC-peptide complex. […] Detection is based on the presence or absence of the native conformation of the MHC-peptide complex. Each peptide is given a score relative to the positive control peptide, which is a known T cell epitope.

[3] = system: HLA-A29
Description: as §5

[4] = system: HLA-B8
[5] = system: HLA-B14
[6] = system: HLA-B15
[7] = molecular target: HLA-A11 (Homo sapiens, UniProt P04439, A114D/F33Y/S129P)
Description: (§1) Binding properties to HLA for the ninemers listed in table 6 were tested for the following HLA-classes:
(§2) HLA-A1, HLA-A2, HLA-A3, HLA-A11, HLA-A24, HLA-A29, HLA-B7, HLA-B8, HLA-B14, HLA-B15, HLA-B27, HLA-B35, HLA-B40.
(§3) The peptides were synthesized as a Prospector PEPscreen®: Custom Peptide Library. […] Quality control by MALDI-TOF Mass Spectrometry was carried out on 100% of samples.
(§4) The REVEAL™ binding assay determined the ability of each candidate peptide to bind to one or more MHC class I alleles and stabilizing the MHC-peptide complex. By comparing the binding to that of high and intermediate affinity T cell epitopes, the most likely immunogenic peptides in a protein sequence can be identified. Detection is based on the presence or absence of the native conformation of the MHC-peptide complex. Each peptide is given a score relative to the positive control peptide, which is a known T cell epitope.

[8] = molecular target: HLA-A2 (Homo sapiens, UniProt P04439, D140Y/D185E/D98H/E176V/E277Q/G131W/G231S/I119V/I121R/I166T/I218V/N151K/N90K/P208A/P217A/Q86G/Q94H/R138H/R169H)
Description: as §1, §2, §3, §4

[9] = molecular target: HLA-A3 (Homo sapiens, UniProt P04439)
Chain of HLA-A3 (P04439 25-299): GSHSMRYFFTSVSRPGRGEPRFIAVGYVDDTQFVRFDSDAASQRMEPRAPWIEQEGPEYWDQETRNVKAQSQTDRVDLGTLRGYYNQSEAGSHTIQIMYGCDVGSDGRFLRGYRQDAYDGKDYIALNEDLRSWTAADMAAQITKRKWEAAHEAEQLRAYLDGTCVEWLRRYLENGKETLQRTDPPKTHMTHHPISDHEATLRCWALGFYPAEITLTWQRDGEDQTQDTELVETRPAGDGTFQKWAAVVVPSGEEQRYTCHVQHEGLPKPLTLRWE
Chain of HLA-A3 (P61769 21-119, further chain): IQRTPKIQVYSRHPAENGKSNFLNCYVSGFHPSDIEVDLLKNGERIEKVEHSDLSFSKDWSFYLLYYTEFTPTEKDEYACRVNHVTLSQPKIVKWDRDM
Description: as §1, §2, §3, §4

[10] = molecular target: HLA-B27 (Homo sapiens, UniProt P01889, D138H/D201E/E176V/E204Q/G107R/H137Y/K202T/N104T/N87E/Q56L/Q94K/R106L/R155S/R180L/S101D/S121N/S48T/Y140D/Y33H/Y91C)
Description: as §1, §2, §3, §4

[11] = molecular target: HLA-B7 (Homo sapiens, UniProt P01889)
Chain of HLA-B7 (P61769 21-119): as the sequence (P61769 21-119, further chain) above
Chain of HLA-B7 (P01889 25-299): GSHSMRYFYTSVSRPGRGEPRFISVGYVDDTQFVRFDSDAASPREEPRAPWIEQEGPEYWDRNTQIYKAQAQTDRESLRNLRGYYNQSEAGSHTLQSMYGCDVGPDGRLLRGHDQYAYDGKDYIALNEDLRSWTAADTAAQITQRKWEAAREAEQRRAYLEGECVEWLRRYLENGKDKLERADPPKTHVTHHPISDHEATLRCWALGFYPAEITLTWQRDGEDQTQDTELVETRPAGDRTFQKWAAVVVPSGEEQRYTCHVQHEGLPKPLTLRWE
Description: as §1, §2, §3, §4

[12] = system: HLA-B35
[13] = system: HLA-B40
Description: as §1, §2
The peptides were synthesized as a Prospector PEPscreen®: Custom Peptide Library. Peptides 8-15 amino acids in length were synthesized in 0.5-2 mg quantities with high average purity. Quality control by MALDI-TOF Mass Spectrometry was carried out on 100% of samples.
as §4, with “epitope. The score of the test peptide is reported quantitatively as a percentage of the signal generated by the positive control peptide, and the peptide is indicated as having a putative pass or fail result. Assay performance is confirmed by including an intermediate control peptide that is known to bind with weaker affinity to the allele under investigation.” for “epitope.”

Sequence	REVEAL binding score, HLA-type A1 [1]	REVEAL binding score, HLA-type A24 [2]	REVEAL binding score, HLA-type A29 [3]	REVEAL binding score, HLA-type B8 [4]	REVEAL binding score, HLA-type B14 [5]	REVEAL binding score, HLA-type B15 [6]	REVEAL binding score, HLA-type A11 [7]	REVEAL binding score, HLA-type A2 [8]	REVEAL binding score, HLA-type A3 [9]	REVEAL binding score, HLA-type B27 [10]	REVEAL binding score, HLA-type B7 [11]	REVEAL binding score, HLA-type B35 [12]	REVEAL binding score, HLA-type B40 [13]
GYIPLVGAP	15.62%	0.80%	29.74%	15.94%	0.47%	11.02%	3.84%	7.28%	3.46%	1.76%	1.37%	10.35%	72.32%
GYLPAVGAP	12.04%	0.35%	26.03%	17.38%	0.11%	10.50%	4.25%	5.87%	2.90%	0.73%	3.10%	1.84%	27.82%
IGGNYLIPR	17.90%	0.89%	14.85%	14.23%	0.32%	15.02%	3.57%	7.04%	2.88%	0.82%	20.49%	2.54%	25.44%
IIGGNYLIP	21.14%	10.95%	13.88%	12.18%	1.17%	19.93%	2.81%	8.27%	3.88%	0.97%	15.47%	5.35%	65.43%
IPLVGAPLG	13.28%	0.60%	26.79%	17.87%	0.03%	10.01%	2.05%	4.32%	2.59%	0.35%	2.34%	30.74%	41.10%
IRNLGRVIE	14.22%	0.61%	11.06%	9.10%	30.77%	4.06%	5.31%	8.77%	3.89%	1.84%	1.43%	1.98%	21.40%
IRVIAHGLR	15.82%	0.50%	23.19%	13.34%	0.10%	8.99%	2.50%	4.83%	3.58%	9.37%	3.50%	0.66%	26.45%
